Source: ChEMBL document CHEMBL4507303, “Data for DCP probe TP-004” (2021)

How the values were obtained:
[1] = molecular target: Serine/threonine-protein kinase 32A (Homo sapiens) (UniProt Q8WU08); conditions: Compound concentration 1000.0 nM
[2] = molecular target: Non-receptor tyrosine-protein kinase TNK1 (Homo sapiens) (UniProt Q13470); conditions: Compound concentration 1000.0 nM
[3] = system: Phosphatidylinositol 4,5-bisphosphate 3-kinase catalytic subunit alpha isoform (Homo sapiens), P42336 [Q546K]; conditions: Compound concentration 1000.0 nM
[4] = molecular target: Casein kinase I isoform delta (Homo sapiens) (UniProt P48730); conditions: Compound concentration 1000.0 nM
[5] = system: eIF-2-alpha kinase GCN2 (Homo sapiens), Q9P2K8 [S808G]; conditions: Compound concentration 1000.0 nM
[6] = molecular target: Tyrosine-protein kinase Srms (Homo sapiens) (UniProt Q9H3Y6); conditions: Compound concentration 1000.0 nM
[7] = molecular target: Serine/threonine-protein kinase TNNI3K (Homo sapiens) (UniProt Q59H18); conditions: Compound concentration 1000.0 nM
[8] = molecular target: Sodium-dependent dopamine transporter (Homo sapiens, UniProt Q01959); assay: GPCRScan assay: inhibition of DAT; set-up: radioligand conc. used [nm] 3.6 – 16.0, parental cells stable HEK
Sequence of Sodium-dependent dopamine transporter (Q01959 whole entry): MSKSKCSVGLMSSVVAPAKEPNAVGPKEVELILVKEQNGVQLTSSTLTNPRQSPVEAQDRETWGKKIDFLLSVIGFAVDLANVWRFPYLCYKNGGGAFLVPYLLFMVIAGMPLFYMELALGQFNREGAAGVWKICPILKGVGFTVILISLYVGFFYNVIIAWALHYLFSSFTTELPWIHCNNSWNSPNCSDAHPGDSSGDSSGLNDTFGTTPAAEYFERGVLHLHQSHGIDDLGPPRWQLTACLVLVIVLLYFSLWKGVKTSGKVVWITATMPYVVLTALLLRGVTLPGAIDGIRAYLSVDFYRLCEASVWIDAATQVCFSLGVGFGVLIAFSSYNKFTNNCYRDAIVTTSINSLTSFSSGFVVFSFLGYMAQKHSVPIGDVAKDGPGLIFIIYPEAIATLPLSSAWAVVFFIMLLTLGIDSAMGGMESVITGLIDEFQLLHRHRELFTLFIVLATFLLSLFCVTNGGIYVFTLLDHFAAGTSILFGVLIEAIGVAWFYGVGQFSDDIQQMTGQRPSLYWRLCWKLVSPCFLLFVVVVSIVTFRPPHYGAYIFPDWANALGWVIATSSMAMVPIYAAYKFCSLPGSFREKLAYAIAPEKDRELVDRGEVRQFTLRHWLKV

[9] = molecular target: 3-phosphoinositide-dependent protein kinase 1 (Homo sapiens) (UniProt O15530); conditions: Compound concentration 1000.0 nM
[10] = molecular target: ALK tyrosine kinase receptor (Homo sapiens) (UniProt Q9UM73); conditions: Compound concentration 1000.0 nM
[11] = molecular target: Bone morphogenetic protein receptor type-1B (Homo sapiens) (UniProt O00238); conditions: Compound concentration 1000.0 nM
Sequence of Bone morphogenetic protein receptor type-1B (Homo sapiens) (O00238 whole entry): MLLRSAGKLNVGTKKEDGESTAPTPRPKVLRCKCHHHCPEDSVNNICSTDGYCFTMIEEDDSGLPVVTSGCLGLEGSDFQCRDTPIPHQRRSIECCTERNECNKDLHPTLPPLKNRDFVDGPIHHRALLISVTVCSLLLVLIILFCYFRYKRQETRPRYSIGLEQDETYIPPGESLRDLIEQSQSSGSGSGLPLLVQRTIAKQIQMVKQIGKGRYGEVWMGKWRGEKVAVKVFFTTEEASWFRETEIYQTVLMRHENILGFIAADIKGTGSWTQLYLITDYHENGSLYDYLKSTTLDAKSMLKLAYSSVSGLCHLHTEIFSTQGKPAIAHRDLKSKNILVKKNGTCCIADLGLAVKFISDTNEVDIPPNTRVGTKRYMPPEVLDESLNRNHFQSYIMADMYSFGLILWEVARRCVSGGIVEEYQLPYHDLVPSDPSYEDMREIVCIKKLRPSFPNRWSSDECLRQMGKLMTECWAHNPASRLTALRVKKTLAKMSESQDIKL

[12] = molecular target: Serine/threonine-protein kinase RIO1 (Homo sapiens) (UniProt Q9BRS2); conditions: Compound concentration 1000.0 nM
[13] = molecular target: Calcium/calmodulin-dependent protein kinase type II subunit delta (Homo sapiens) (UniProt Q13557); conditions: Compound concentration 1000.0 nM
[14] = molecular target: Muscarinic acetylcholine receptor M4 (Homo sapiens) (UniProt P08173); conditions: Compound concentration 10.0 uM
[15] = molecular target: Serine/threonine-protein kinase D2 (Homo sapiens) (UniProt Q9BZL6); conditions: Compound concentration 1000.0 nM
[16] = molecular target: Protein kinase C eta type (Homo sapiens) (UniProt P24723); conditions: Compound concentration 1000.0 nM
[17] = molecular target: Receptor tyrosine-protein kinase erbB-4 (Homo sapiens) (UniProt Q15303); conditions: Compound concentration 1000.0 nM
[18] = molecular target: Non-receptor tyrosine-protein kinase TYK2 (Homo sapiens) (UniProt P29597); conditions: Compound concentration 1000.0 nM
[19] = molecular target: Mitogen-activated protein kinase kinase kinase 12 (Homo sapiens) (UniProt Q12852); conditions: Compound concentration 1000.0 nM
[20] = molecular target: Mitogen-activated protein kinase kinase kinase 20 (Homo sapiens) (UniProt Q9NYL2); conditions: Compound concentration 1000.0 nM
[21] = molecular target: Eukaryotic translation initiation factor 2-alpha kinase 1 (Homo sapiens) (UniProt Q9BQI3); conditions: Compound concentration 1000.0 nM
[22] = molecular target: 5-hydroxytryptamine receptor 7 (Homo sapiens) (UniProt P34969); conditions: Compound concentration 10.0 uM
Sequence of 5-hydroxytryptamine receptor 7 (Homo sapiens) (P34969 whole entry): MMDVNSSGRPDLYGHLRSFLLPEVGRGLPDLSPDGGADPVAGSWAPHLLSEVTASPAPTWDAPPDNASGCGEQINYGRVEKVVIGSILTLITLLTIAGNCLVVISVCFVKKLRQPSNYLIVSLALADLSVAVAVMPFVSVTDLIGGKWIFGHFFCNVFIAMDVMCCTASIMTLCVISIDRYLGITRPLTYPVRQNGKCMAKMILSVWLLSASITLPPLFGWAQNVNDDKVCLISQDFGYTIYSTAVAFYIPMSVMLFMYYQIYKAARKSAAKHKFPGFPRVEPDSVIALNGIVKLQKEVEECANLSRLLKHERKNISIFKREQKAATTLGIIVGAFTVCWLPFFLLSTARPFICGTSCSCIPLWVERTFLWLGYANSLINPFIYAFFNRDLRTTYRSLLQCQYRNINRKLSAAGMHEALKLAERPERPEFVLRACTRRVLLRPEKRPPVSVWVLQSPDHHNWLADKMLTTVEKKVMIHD

[23] = molecular target: Serine/threonine-protein kinase RIO3 (Homo sapiens) (UniProt O14730); conditions: Compound concentration 1000.0 nM
[24] = molecular target: Serine/threonine-protein kinase 17B (Homo sapiens) (UniProt O94768); conditions: Compound concentration 1000.0 nM
[25] = molecular target: Rhodopsin kinase GRK7 (Homo sapiens) (UniProt Q8WTQ7); conditions: Compound concentration 1000.0 nM
[26] = molecular target: Serine/threonine-protein kinase Nek3 (Homo sapiens) (UniProt P51956); conditions: Compound concentration 1000.0 nM
[27] = molecular target: Serine/threonine-protein kinase LATS2 (Homo sapiens) (UniProt Q9NRM7); conditions: Compound concentration 1000.0 nM
Sequence of Serine/threonine-protein kinase LATS2 (Homo sapiens) (Q9NRM7 whole entry): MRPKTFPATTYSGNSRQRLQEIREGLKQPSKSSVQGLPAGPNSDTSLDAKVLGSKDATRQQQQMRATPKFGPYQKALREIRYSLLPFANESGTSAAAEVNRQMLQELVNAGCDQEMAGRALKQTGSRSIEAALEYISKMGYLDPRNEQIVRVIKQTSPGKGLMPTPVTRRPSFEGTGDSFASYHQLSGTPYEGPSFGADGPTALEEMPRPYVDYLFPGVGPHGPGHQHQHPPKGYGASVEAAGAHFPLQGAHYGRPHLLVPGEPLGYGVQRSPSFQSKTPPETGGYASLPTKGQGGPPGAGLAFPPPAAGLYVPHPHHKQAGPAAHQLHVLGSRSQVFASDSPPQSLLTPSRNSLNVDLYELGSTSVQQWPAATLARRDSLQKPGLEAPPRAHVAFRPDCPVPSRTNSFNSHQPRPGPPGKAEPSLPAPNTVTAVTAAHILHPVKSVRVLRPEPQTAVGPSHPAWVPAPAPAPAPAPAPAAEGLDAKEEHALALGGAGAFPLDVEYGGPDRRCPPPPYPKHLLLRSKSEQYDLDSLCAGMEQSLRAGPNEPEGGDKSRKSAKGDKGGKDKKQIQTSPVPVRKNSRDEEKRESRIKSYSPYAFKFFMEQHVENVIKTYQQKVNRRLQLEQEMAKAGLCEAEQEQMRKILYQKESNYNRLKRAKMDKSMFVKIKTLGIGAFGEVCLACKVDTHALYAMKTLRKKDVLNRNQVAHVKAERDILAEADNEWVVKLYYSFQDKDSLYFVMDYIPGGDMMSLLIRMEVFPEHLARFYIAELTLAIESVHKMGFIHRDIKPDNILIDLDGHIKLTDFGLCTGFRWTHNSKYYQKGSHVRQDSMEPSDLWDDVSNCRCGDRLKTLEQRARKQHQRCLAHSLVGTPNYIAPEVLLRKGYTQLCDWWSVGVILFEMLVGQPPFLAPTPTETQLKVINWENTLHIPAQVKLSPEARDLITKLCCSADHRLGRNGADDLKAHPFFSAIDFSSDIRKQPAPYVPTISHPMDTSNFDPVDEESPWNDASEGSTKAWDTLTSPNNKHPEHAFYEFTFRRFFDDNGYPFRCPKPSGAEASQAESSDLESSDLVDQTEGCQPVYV

[28] = molecular target: Receptor-type tyrosine-protein kinase FLT3 (Homo sapiens) (UniProt P36888); conditions: Compound concentration 1000.0 nM
[29] = system: Epidermal growth factor receptor (Homo sapiens), P00533 [L858R]; conditions: Compound concentration 1000.0 nM
[30] = molecular target: Casein kinase II subunit alpha (Homo sapiens) (UniProt P68400); conditions: Compound concentration 1000.0 nM
[31] = molecular target: Mast/stem cell growth factor receptor Kit (Homo sapiens) (UniProt P10721); conditions: Compound concentration 1000.0 nM
[32] = molecular target: Serine/threonine-protein kinase 32B (Homo sapiens) (UniProt Q9NY57); conditions: Compound concentration 1000.0 nM
[33] = system: Receptor-type tyrosine-protein kinase FLT3 (Homo sapiens), P36888 [N841I]; conditions: Compound concentration 1000.0 nM
[34] = molecular target: Ribosomal protein S6 kinase alpha-5 (Homo sapiens) (UniProt O75582); conditions: Compound concentration 1000.0 nM
[35] = molecular target: Interleukin-1 receptor-associated kinase 4 (Homo sapiens) (UniProt Q9NWZ3); conditions: Compound concentration 1000.0 nM
[36] = molecular target: Serine/threonine-protein kinase 26 (Homo sapiens) (UniProt Q9P289); conditions: Compound concentration 1000.0 nM
Sequence of Serine/threonine-protein kinase 26 (Homo sapiens) (Q9P289 2-416 limits assumed): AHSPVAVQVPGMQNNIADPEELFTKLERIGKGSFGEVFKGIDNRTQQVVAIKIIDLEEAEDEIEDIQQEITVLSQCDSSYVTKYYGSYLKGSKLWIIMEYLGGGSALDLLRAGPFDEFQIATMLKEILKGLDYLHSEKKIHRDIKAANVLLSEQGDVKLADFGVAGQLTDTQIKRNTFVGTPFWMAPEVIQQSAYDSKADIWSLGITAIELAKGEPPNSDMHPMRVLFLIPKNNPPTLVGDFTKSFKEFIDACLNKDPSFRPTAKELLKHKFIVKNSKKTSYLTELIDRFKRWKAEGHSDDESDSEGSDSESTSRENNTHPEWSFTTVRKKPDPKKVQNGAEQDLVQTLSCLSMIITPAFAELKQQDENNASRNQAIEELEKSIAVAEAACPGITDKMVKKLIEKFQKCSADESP

[37] = molecular target: Casein kinase I isoform gamma-3 (Homo sapiens) (UniProt Q9Y6M4); conditions: Compound concentration 1000.0 nM
[38] = molecular target: Serine/threonine-protein kinase 33 (Homo sapiens) (UniProt Q9BYT3); conditions: Compound concentration 1000.0 nM
[39] = molecular target: LIM domain kinase 2 (Homo sapiens) (UniProt P53671); conditions: Compound concentration 1000.0 nM
[40] = molecular target: Histamine H1 receptor (Homo sapiens) (UniProt P35367); conditions: Compound concentration 10.0 uM
[41] = molecular target: Leukocyte tyrosine kinase receptor (Homo sapiens) (UniProt P29376); conditions: Compound concentration 1000.0 nM
[42] = molecular target: Aurora kinase B (Homo sapiens) (UniProt Q96GD4); conditions: Compound concentration 1000.0 nM
[43] = molecular target: Mitogen-activated protein kinase kinase kinase 19 (Homo sapiens) (UniProt Q56UN5); conditions: Compound concentration 1000.0 nM
[44] = molecular target: Ephrin type-B receptor 4 (Homo sapiens) (UniProt P54760); conditions: Compound concentration 1000.0 nM
Sequence of Ephrin type-B receptor 4 (Homo sapiens) (P54760 whole entry): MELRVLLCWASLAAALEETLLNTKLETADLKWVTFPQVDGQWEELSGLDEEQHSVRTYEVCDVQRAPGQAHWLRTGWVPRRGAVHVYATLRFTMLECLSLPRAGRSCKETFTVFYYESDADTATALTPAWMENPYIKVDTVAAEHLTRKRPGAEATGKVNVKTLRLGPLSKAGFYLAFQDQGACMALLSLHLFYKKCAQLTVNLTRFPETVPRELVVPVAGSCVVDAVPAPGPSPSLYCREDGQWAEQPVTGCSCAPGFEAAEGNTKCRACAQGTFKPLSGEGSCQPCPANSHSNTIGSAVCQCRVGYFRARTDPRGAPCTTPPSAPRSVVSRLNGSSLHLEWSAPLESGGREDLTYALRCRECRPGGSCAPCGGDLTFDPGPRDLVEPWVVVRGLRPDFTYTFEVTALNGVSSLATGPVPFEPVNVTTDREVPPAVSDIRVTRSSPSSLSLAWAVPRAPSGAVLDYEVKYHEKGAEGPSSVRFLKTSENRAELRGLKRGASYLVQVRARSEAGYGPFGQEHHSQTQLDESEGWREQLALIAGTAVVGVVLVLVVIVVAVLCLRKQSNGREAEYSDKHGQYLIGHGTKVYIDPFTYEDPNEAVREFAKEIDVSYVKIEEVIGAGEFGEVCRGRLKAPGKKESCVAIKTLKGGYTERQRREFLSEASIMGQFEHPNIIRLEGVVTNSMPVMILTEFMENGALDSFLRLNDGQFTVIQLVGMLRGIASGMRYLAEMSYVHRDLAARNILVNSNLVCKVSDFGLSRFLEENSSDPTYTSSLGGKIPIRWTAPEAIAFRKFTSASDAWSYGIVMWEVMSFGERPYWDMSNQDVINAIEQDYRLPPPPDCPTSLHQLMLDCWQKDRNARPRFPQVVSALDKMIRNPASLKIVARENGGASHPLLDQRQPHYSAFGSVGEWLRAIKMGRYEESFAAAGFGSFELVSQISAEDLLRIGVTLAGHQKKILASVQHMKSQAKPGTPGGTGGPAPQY

[45] = molecular target: Ephrin type-A receptor 3 (Homo sapiens) (UniProt P29320); conditions: Compound concentration 1000.0 nM
Sequence of Ephrin type-A receptor 3 (Homo sapiens) (P29320 whole entry): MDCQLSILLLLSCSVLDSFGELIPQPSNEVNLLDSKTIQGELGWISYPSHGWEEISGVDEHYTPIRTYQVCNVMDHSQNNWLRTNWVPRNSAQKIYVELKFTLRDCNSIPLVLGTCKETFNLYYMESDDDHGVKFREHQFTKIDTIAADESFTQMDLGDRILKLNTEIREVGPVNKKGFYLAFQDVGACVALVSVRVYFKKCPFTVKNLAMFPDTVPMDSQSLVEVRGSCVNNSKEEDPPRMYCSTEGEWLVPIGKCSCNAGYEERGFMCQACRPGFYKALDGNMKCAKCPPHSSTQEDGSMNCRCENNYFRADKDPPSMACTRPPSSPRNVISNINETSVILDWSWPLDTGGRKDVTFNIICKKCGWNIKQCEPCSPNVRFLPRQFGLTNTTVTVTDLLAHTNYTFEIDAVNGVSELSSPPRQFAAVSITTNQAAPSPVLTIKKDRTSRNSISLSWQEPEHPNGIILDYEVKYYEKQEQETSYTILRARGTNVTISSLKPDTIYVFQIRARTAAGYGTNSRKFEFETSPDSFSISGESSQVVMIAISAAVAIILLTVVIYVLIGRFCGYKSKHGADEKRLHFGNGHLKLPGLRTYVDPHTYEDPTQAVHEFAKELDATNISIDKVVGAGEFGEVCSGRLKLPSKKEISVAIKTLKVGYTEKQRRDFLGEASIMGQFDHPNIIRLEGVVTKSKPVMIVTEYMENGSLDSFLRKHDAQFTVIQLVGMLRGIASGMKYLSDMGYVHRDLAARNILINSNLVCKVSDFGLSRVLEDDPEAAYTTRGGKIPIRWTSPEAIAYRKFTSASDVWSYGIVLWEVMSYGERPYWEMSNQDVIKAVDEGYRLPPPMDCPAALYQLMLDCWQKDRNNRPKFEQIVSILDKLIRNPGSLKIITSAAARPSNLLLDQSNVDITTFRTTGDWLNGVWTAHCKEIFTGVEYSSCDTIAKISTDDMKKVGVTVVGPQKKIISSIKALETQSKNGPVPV

Cc1nc(N2CC[C@@H](O)C2)ncc1-c1cc(C(F)(F)F)cc2[nH]ncc12 [TP-004]
residual activity [1]: 85% | residual activity [2]: 100% | residual activity [3]: 82% | residual activity [4]: 95% | residual activity [5]: 76% | residual activity [6]: 81% | residual activity [7]: 87% | Ki ([8]; read-out: Ki): 1680 nM | Ki ([8]; read-out: pKi (converted)): 1580 nM | residual activity [9]: 100% | residual activity [10]: 81% | residual activity [11]: 60% | residual activity [12]: 100% | residual activity [13]: 100% | inhibition [14]: 5.7% | residual activity [15]: 79% | residual activity [16]: 94% | residual activity [17]: 87% | residual activity [18]: 58% | residual activity [19]: 99% | residual activity [20]: 100% | residual activity [21]: 98% | inhibition [22]: 10.8% | residual activity [23]: 100% | residual activity [24]: 99% | residual activity [25]: 70% | residual activity [26]: 60% | residual activity [27]: 26% | residual activity [28]: 67% | residual activity [29]: 77% | residual activity [30]: 85% | residual activity [31]: 67% | residual activity [32]: 100% | residual activity [33]: 88% | residual activity [34]: 81% | residual activity [35]: 94% | residual activity [36]: 59% | residual activity [37]: 74% | residual activity [38]: 100% | residual activity [39]: 100% | inhibition [40]: 0.239% | residual activity [41]: 87% | residual activity [42]: 100% | residual activity [43]: 67% | residual activity [44]: 100% | residual activity [45]: 94%
